Data on two compounds can be found in patent US7714014B2, “Targeting GLI proteins in human cancer by small molecules” (The Regents of the University of California, priority 2005, dated 2010).

Data set [1] concerns SW480 cells transfected with empty pCDNA3 vector or Gli2 cDNA expression construct. Put plainly: GLI2 over-expression rescue experiment. The class given is cell-based, human. The conditions noted are these: 5 days. On the procedure:
For transient transfection experiments, cells (2×10^5) were plated in six-well plates using growth medium without antibiotics 24 hrs before transfection. Lipofectamine™ 2000 (Invitrogen Life Technologies; Carlsbad, Calif.) was used to mediate transfection using 2.0 μg of cDNA in pCDNA3 vector or 2.0 μg empty pCDNA3 vector as control, according to the manufacturer's protocol. Then the transfected cells were cultured at 37° C. in a humid incubator with 5% CO2 until they were ready for analysis. Gli2 cDNA was kindly provided by Dr. Fritz Aberger at University of Salzburg (Salzburg, Austria). Gli1 and Gli3 cDNA were kindly provided by Dr. Bert Vogelstein and Dr. Kenneth W. Kinzler at the Sidney Kimmel Comprehensive Cancer Center of the Johns Hopkins University (Baltimore, Md.). TAFIII31 cDNA was kindly provided by Dr. Gregory L. Verdine at Harvard University (Cambridge, Mass.).
As described herein, GLI3 seems to activate transcription of Gli1 and Gli2 genes. […] If so, then transfecting a GLI1 and/or GLI2 expression construct into a cell treated with a small molecule compound of the present invention, should lead to at least a partial rescue of the apoptotic effect mediated by the small molecule compound. Thus, to further examine the specificity of the small molecule compound FN1-5, as well as its inhibitory mechanisms, it was tested whether over-expressing GLI2 protein could attenuate the cell killing effect of FN1-5. In this experiment, the colon cancer cell line SW480 was transfected with either empty pCDNA3 vector or with a Gli2 cDNA expression construct. After selection, the transfected cells were re-plated in 6-well plates at same numbers, and then FN1-5 was added into medium at a final concentration of 50 μM.
To further examine the specificity of the small molecule compound FN1-8, as well as its inhibitory mechanisms, we tested whether over-expressing GLI2 protein could attenuate the cell killing effect of FN1-8. The transfection experiment was performed as described above. After 5 days, apoptosis analysis using flow cytometry was performed to quantify the experiment.

Data set [2] relates to normal human muscle cells. Put plainly: Cell survival assay (crystal violet). The format is cell-based. Particulars: 1, 10, 30, and 50 μM, 3 days. On the procedure:
(§1) Typically, the small molecule compounds of the present invention were dissolved in DMSO at a concentration of 30 mM. The small molecule compounds were then tested under cell culture conditions at different concentrations ranging from 0, 10, 30, 50, to 100 uM. To determine cell survival after treatment, the cells were incubated with the small molecule compounds in 6-well plates for about 3 days. After removal of the cell culture medium, 1-ml of 0.5% crystal violet solution (prepared in 20% ethanol and 20% methanol) was added to stain the cells for 5 min. Then the crystal violet solution was rinsed clean with tap water. Cell survival was estimated based on the density of crystal stained plates.
The cell killing effect of small molecule compounds FN1-8, FN1-7, and FN1-5 at different doses was examined in normal human muscle cells. […] Normal muscle cells were plated in 6-well plates and incubated with 1, 10, 30, and 50 μM of each compound for 3 days, in the same manner as described herein for similar other experiments. […] Both FN1-5 and FN1-8 seem to be specific in killing cancer cells.

Data set [3] concerns human sarcoma cell lines MG63 and MNNG. Put plainly: Cell survival assay (crystal violet). The class given is cell-based. Particulars: FN1-8 at 50 μM; 10, 30 and 50 μM tested. On the procedure:
as §1
The cell-based cytotoxicity assay described herein was used to determine the effect of small molecule compounds FN1-5 and FN1-8 in the human sarcoma cell lines MG63 and MNNG. Viability of these cells was analyzed after treatment with 10, 30 and 50 μM FN1-5 or FN1-8.

For data set [4], the system named is mesothelioma cell lines MS-1 and REN. Put plainly: Cell survival assay (crystal violet). The class given is cell-based, human. The conditions noted are these: 1, 10, and 30 μM, 3 days. On the procedure: as §1
(§2) Cell killing was also tested using mesothelioma cell lines H290, 211H, MS1 and REN and different doses of the small molecule compounds FN1-5 and FN1-8. Cells were plated in 6-well plates and incubated with 1, 10, and 30 μM of each compound for 3 days, as described herein. […] (data not shown).

Data set [5] has as its system mesothelioma cell lines H290 and 211H. Put plainly: Cell survival assay (crystal violet). The format is cell-based, human. The conditions noted are these: 30 μM, 3 days. On the procedure:
as §1, §2

The test system of data set [6] is hedgehog pathway in HT29 cells. Put plainly: Semi-quantitative RT-PCR of Hedgehog pathway genes. The class given is cell-based, human. Particulars: data not shown. On the procedure: Total RNA from cell lines or tissue samples was isolated using Qiagen RNeasy Mini Kit (Valencia, Calif.). RT-PCR was performed in GeneAmp PCR system 2700 (Applied Biosystems, Foster City, Calif.) using One-step RT-PCR Kit from Invitrogen Life Technologies (Carlsbad, Calif.). Primers for RT-PCR were obtained from Operon Technologies Inc. (Alameda, Calif.). Primer sequences for amplifying different genes in Hedgehog and Wnt signaling pathways are listed in the table below (Table 1; F, forward primer; R, reverse primer). The expected size of the PCR product is indicated for each primer pair. GAPDH was used as internal control.

The test system of data set [7] is human renal cell carcinoma cell lines 786-O, Caki, and OMRC3. Put plainly: Cell survival assay (crystal violet). The class given is cell-based. Particulars: for cell killing: 50 μM. On the procedure:
as §1
The cell-based cytotoxicity assay described herein was used to determine the effect of small molecule compounds FN1-5 and FN1-8 in the human renal cell carcinoma cell lines 786-O, Caki, and OMRC3. Viability of these cells was analyzed after treatment with 10, 30 and 50 μM FN1-5 or FN1-8.

The subject of a further data set is normal human renal cells. Put plainly: Cell survival assay (crystal violet). The format is cell-based. The conditions noted are these: FN1-5 30 and 50 μM; FN1-8 10, 30, and 50 μM; 3 days. On the procedure: as §1
The cell killing effect of small molecule compounds FN1-5, and FN1-8 at different doses was examined in normal human renal cells. Normal renal cells were plated in 6-well plates and incubated with 30 and 50 μM of compound FN1-5 and 10, 30, and 50 μM FN1-8 for 3 days, in the same manner as described herein for similar other experiments.

Regarding `O=C(NCCCCCO)C1C(c2ccccc2)=NN(c2ccccc2)C1c1ccccc1` (stereo not drawn) [FN1-5, N-(5-Hydroxypentyl)-1,3,5-triphenyl-4,5-dihydro-pyrazole-4-carboxyamide], the “cell killing, Gli2-transfected versus empty vector cells” value in data set [1] (50 μM) was “kill less cells transfected with Gli2 than those with empty vector”. Further, the “cell killing effect in normal cells” value (in data set [2]; in the data set on normal human renal cells) was “No noticeable cell killing effect” each time. In addition, the cell killing result is on record as “No significant cell killing” in data set [3], “no noticeable effect” in data set [4], “Dramatic cell killing” in data set [5] and “dramatic cell killing” in data set [7]. The “modulation of hedgehog pathway (RT-PCR)” value in data set [6] is listed as “no noticeable changes”.

Turning to `O=C(NCCc1ccc(O)cc1)C1C(c2ccccc2)=NN(c2ccccc2)C1c1ccccc1` (stereo not drawn) [FN1-8, N-(2-(4-Hydroxyphenyl)ethyl)-1,3,5-triphenyl-4,5-dihydro-pyrazole-4-carboxyamide], the apoptotic cells was 48.1% in data set [1] (SW480 transfected with empty vector) and 27.7% in data set [1] (SW480 transfected with the Gli2 expression construct). The “cell killing effect in normal cells” value (in data set [2]; with normal human renal cells) was “No noticeable cell killing effect” each time. The cell killing entry is “dramatic cell killing” in data set [3], “no noticeable effect” in data set [4], “Dramatic cell killing” in data set [5] and “dramatic cell killing” in data set [7]. Further, the “modulation of hedgehog pathway (RT-PCR)” value in data set [6] was “no noticeable changes”. In data set [7], the “cell killing potency compared with FN1-5” value is listed as “more potent”.
